Results: patent US12606548B2, “Fungicidal oxadiazoles” (FMC CORPORATION, priority 2019, dated 2026)

Key:
Phakopsora pachyrhizi = assay: Test A: test suspension sprayed on soybean seedlings, inoculated next day with Phakopsora pachyrhizi (Asian soybean rust), visual disease rating; type: in vivo; details: for Test A rating (% disease control): relative to the controls
Text: General protocol for preparing test suspensions for Tests A-C: the test compounds were first dissolved in acetone in an amount equal to 3% of the final volume and then suspended at the desired concentration (in ppm) in acetone and purified water (50/50 mix by volume) containing 250 ppm of the surfactant PEG400 (polyhydric alcohol esters). The resulting test suspensions were then used in Tests A-C. The test suspension was sprayed to the point of run-off on soybean seedlings. The following day the seedlings were inoculated with a spore suspension of Phakopsora pachyrhizi (the causal agent of Asian soybean rust) and incubated in a saturated atmosphere at 22° C., for 24 h and then moved to a growth chamber at 22° C., for 8 days, after which time visual disease ratings were made. […] A dash (-) indicates the compound was not tested. The test suspensions were sprayed at the concentration listed in the column “Rate in ppm”, unless otherwise indicated.

[1] = tested on: Puccinia recondita f. sp. tritici; assay: Test C: test suspension sprayed on wheat seedlings, inoculated next day with Puccinia recondita f. sp. tritici (wheat leaf rust), visual disease rating; type: in vivo; details: for Test C rating (% disease control): relative to the controls
Text: General protocol for preparing test suspensions for Tests A-C: the test compounds were first dissolved in acetone in an amount equal to 3% of the final volume and then suspended at the desired concentration (in ppm) in acetone and purified water (50/50 mix by volume) containing 250 ppm of the surfactant PEG400 (polyhydric alcohol esters). The resulting test suspensions were then used in Tests A-C. The test suspension was sprayed to the point of run-off on wheat seedlings. The following day the seedlings were inoculated with a spore suspension of Puccinia recondita f. sp. tritici; (the causal agent of wheat leaf rust) and incubated in a saturated atmosphere at 20° C., for 24 h, and then moved to a growth chamber at 20° C., for 6 days, after which time visual disease ratings were made. […] A dash (-) indicates the compound was not tested. The test suspensions were sprayed at the concentration listed in the column “Rate in ppm”, unless otherwise indicated.

## CCCCCOC(=O)c1cnn(Cc2ccc(-c3noc(C(F)(F)F)n3)cc2)c1 [compound 447]
Phakopsora pachyrhizi; Rate 10 ppm test suspension
  Test A rating (% disease control): 100%
[1]; Rate 10 ppm test suspension
  Test C rating (% disease control): 100%

## O=C(OCC1CC1)c1cnn(Cc2ccc(-c3noc(C(F)(F)F)n3)cc2)c1 [compound 411]
Phakopsora pachyrhizi; Rate 10 ppm test suspension
  Test A rating (% disease control): 100%
[1]; Rate 10 ppm test suspension
  Test C rating (% disease control): 100%

## O=C(Nc1ccccc1)c1cnn(Cc2ccc(-c3noc(C(F)(F)F)n3)cc2)c1 [compound 485]
Phakopsora pachyrhizi; Rate 10 ppm test suspension
  Test A rating (% disease control): 100%
[1]; Rate 10 ppm test suspension
  Test C rating (% disease control): 99%

## CS(=O)(=O)CCOC(=O)c1cnn(Cc2ccc(-c3noc(C(F)(F)F)n3)cc2)c1 [compound 390]
Phakopsora pachyrhizi; Rate 10 ppm test suspension
  Test A rating (% disease control): 100%
[1]; Rate 10 ppm test suspension
  Test C rating (% disease control): 100%

## FC(F)(F)c1nc(-c2ccc(Cn3cc(I)cn3)cc2)no1 [compound 383]
Phakopsora pachyrhizi; Rate 10 ppm test suspension
  Test A rating (% disease control): 71%
[1]; Rate 10 ppm test suspension
  Test C rating (% disease control): 68%

## FC(F)(F)c1nc(-c2ccc(Cn3ncc4cc(Br)cnc43)cc2)no1 [compound 413]
Phakopsora pachyrhizi; Rate 10 ppm test suspension
  Test A rating (% disease control): 100%
[1]; Rate 10 ppm test suspension
  Test C rating (% disease control): 68%

## COc1ccn(Cc2ccc(-c3noc(C(F)(F)F)n3)cc2)c(=O)c1 [compound 421]
Phakopsora pachyrhizi; Rate 10 ppm test suspension
  Test A rating (% disease control): 100%
[1]; Rate 10 ppm test suspension
  Test C rating (% disease control): 100%

## O=C(OCc1ccccc1)c1cnn(Cc2ccc(-c3noc(C(F)(F)F)n3)cc2)c1 [compound 412]
Phakopsora pachyrhizi; Rate 10 ppm test suspension
  Test A rating (% disease control): 100%
[1]; Rate 10 ppm test suspension
  Test C rating (% disease control): 100%

## CCOC(=O)C1(Cc2ccc(-c3noc(C(F)(F)F)n3)cc2)CCNC1=O (stereo not shown) [compound 431]
Phakopsora pachyrhizi; Rate 50 ppm test suspension
  Test A rating (% disease control): 99%
[1]; Rate 50 ppm test suspension
  Test C rating (% disease control): 98%

## CN(CC#N)C(=O)c1cnn(Cc2ccc(-c3noc(C(F)(F)F)n3)cc2)c1 [compound 379]
Phakopsora pachyrhizi; Rate 10 ppm test suspension
  Test A rating (% disease control): 100%
[1]; Rate 10 ppm test suspension
  Test C rating (% disease control): 97%

## C=CCOC(=O)c1cnn(Cc2cc(OC)c(-c3noc(C(F)(F)F)n3)s2)c1 [compound 440]
Phakopsora pachyrhizi; Rate 10 ppm test suspension
  Test A rating (% disease control): 0%
[1]; Rate 10 ppm test suspension
  Test C rating (% disease control): 0%

## COC(=O)c1cnn(CCCc2ccc(-c3noc(C(F)(F)F)n3)cc2)c1 [compound 427]
Phakopsora pachyrhizi; Rate 50 ppm test suspension
  Test A rating (% disease control): 100%
[1]; Rate 50 ppm test suspension
  Test C rating (% disease control): 67%

## CNC(=O)c1cnn(CCCc2ccc(-c3noc(C(F)(F)F)n3)cc2)c1 [compound 415]
Phakopsora pachyrhizi; Rate 10 ppm test suspension
  Test A rating (% disease control): 100%
[1]; Rate 10 ppm test suspension
  Test C rating (% disease control): 96%

## CCOC(=O)c1cc(C)n(Cc2ccc(-c3noc(C(F)(F)F)n3)cc2)n1 [compound 110]
Phakopsora pachyrhizi; 10 ppm test suspension
  Test A disease control rating: 100%
[1]; 10 ppm test suspension
  Test C disease control rating: 91%

## COc1ccc(C(O)c2ccc(-c3noc(C(F)(F)F)n3)cc2)cc1 (racemic) [compound 309]
Phakopsora pachyrhizi; 50 ppm test suspension
  Test A disease control rating: 100%
[1]; 50 ppm test suspension
  Test C disease control rating: 68%

## O=C(OCc1ccccn1)c1cnn(Cc2ccc(-c3noc(C(F)(F)F)n3)cc2)c1 [compound 479]
Phakopsora pachyrhizi; Rate 10 ppm test suspension
  Test A rating (% disease control): 100%
[1]; Rate 10 ppm test suspension
  Test C rating (% disease control): 100%

## CCOC(=O)COC(=O)c1cnn(Cc2ccc(-c3noc(C(F)(F)F)n3)cc2)c1 [compound 476]
Phakopsora pachyrhizi; Rate 10 ppm test suspension
  Test A rating (% disease control): 100%
[1]; Rate 10 ppm test suspension
  Test C rating (% disease control): 86%

## CCOC(=O)c1cnn(CCCc2ccc(-c3noc(C(F)(F)F)n3)cc2)c1 [compound 437]
Phakopsora pachyrhizi; Rate 10 ppm test suspension
  Test A rating (% disease control): 100%
[1]; Rate 10 ppm test suspension
  Test C rating (% disease control): 86%

## CCOC(=O)C1(Cc2ccc(-c3noc(C(F)(F)F)n3)cc2)CCCNC1=O (stereo not shown) [compound 432]
Phakopsora pachyrhizi; Rate 50 ppm test suspension
  Test A rating (% disease control): 100%
[1]; Rate 50 ppm test suspension
  Test C rating (% disease control): 92%

## CCCCOC(=O)c1cnn(Cc2ccc(-c3noc(C(F)(F)F)n3)cc2)c1 [compound 410]
Phakopsora pachyrhizi; Rate 10 ppm test suspension
  Test A rating (% disease control): 100%
[1]; Rate 10 ppm test suspension
  Test C rating (% disease control): 100%

## C=C(C#N)COC(=O)c1cnn(Cc2ccc(-c3noc(C(F)(F)F)n3)cc2)c1 [compound 486]
Phakopsora pachyrhizi; Rate 10 ppm test suspension
  Test A rating (% disease control): 100%
[1]; Rate 10 ppm test suspension
  Test C rating (% disease control): 89%

## CCCOC(=O)c1cnn(Cc2cc(OC)c(-c3noc(C(F)(F)F)n3)s2)c1 [compound 439]
Phakopsora pachyrhizi; Rate 10 ppm test suspension
  Test A rating (% disease control): 0%
[1]; Rate 10 ppm test suspension
  Test C rating (% disease control): 0%

## C#CCNC(=O)C1=NOC(Cc2ccc(-c3noc(C(F)(F)F)n3)s2)C1 (racemic) [compound 429]
Phakopsora pachyrhizi; Rate 50 ppm test suspension
  Test A rating (% disease control): 100%
[1]; Rate 50 ppm test suspension
  Test C rating (% disease control): 100%

## O=C(NCC(F)(F)F)c1cnn(Cc2ccc(-c3noc(C(F)(F)F)n3)cc2)c1 [compound 449]
Phakopsora pachyrhizi; Rate 10 ppm test suspension
  Test A rating (% disease control): 100%
[1]; Rate 10 ppm test suspension
  Test C rating (% disease control): 100%

## C=CCON=Cc1cnn(Cc2ccc(-c3noc(C(F)(F)F)n3)cc2)c1 [compound 386]
Phakopsora pachyrhizi; Rate 10 ppm test suspension
  Test A rating (% disease control): 100%
[1]; Rate 10 ppm test suspension
  Test C rating (% disease control): 100%

## CCOC(=O)c1cnn(CCCc2ccc(-c3noc(C(F)(F)F)n3)cc2)c1 [compound 428]
Phakopsora pachyrhizi; Rate 50 ppm test suspension
  Test A rating (% disease control): 100%
[1]; Rate 50 ppm test suspension
  Test C rating (% disease control): 100%

## CN(C)C(=O)c1cnn(CCCc2ccc(-c3noc(C(F)(F)F)n3)cc2)c1 [compound 406]
Phakopsora pachyrhizi; Rate 10 ppm test suspension
  Test A rating (% disease control): 100%
[1]; Rate 10 ppm test suspension
  Test C rating (% disease control): 93%

## O=C(NCc1ccccc1)c1cnn(Cc2ccc(-c3noc(C(F)(F)F)n3)cc2)c1 [compound 484]
Phakopsora pachyrhizi; Rate 10 ppm test suspension
  Test A rating (% disease control): 100%
[1]; Rate 10 ppm test suspension
  Test C rating (% disease control): 100%

## 6-chloro-2-[[4-[5-(trifluoromethyl)-1,2,4-oxadiazol-3-yl]phenyl]methyl]-3(2H)-pyridazinone [Compound 4]
Phakopsora pachyrhizi; 50 ppm test suspension
  Test A disease control rating: 100%
[1]; 50 ppm test suspension
  Test C disease control rating: 100%

## CC(C)ON=Cc1cnn(Cc2ccc(-c3noc(C(F)(F)F)n3)cc2)c1 [compound 388]
Phakopsora pachyrhizi; Rate 10 ppm test suspension
  Test A rating (% disease control): 100%
[1]; Rate 10 ppm test suspension
  Test C rating (% disease control): 100%

## COC(=O)c1ccc2c(c1)nnn2Cc1ccc(-c2noc(C(F)(F)F)n2)cc1 [compound 22]
Phakopsora pachyrhizi; 10 ppm test suspension
  Test A disease control rating: 100%
[1]; 10 ppm test suspension
  Test C disease control rating: 96%

## CSCC(=O)COC(=O)c1cnn(Cc2ccc(-c3noc(C(F)(F)F)n3)cc2)c1 [compound 434]
Phakopsora pachyrhizi; Rate 10 ppm test suspension
  Test A rating (% disease control): 100%
[1]; Rate 10 ppm test suspension
  Test C rating (% disease control): 98%

## FC(F)(F)c1nc(-c2ccc(Cn3cc4c(I)ccnc4n3)cc2)no1 [compound 445]
Phakopsora pachyrhizi; Rate 10 ppm test suspension
  Test A rating (% disease control): 100%
[1]; Rate 10 ppm test suspension
  Test C rating (% disease control): 99%

## N#Cc1cccn(Cc2ccc(-c3noc(C(F)(F)F)n3)cc2)c1=O [compound 417]
Phakopsora pachyrhizi; Rate 10 ppm test suspension
  Test A rating (% disease control): 100%
[1]; Rate 10 ppm test suspension
  Test C rating (% disease control): 100%

## FC(F)(F)c1nc(-c2ccc(Cn3cc4cnc(Cl)nc4n3)cc2)no1 [compound 433]
Phakopsora pachyrhizi; Rate 10 ppm test suspension
  Test A rating (% disease control): 100%
[1]; Rate 10 ppm test suspension
  Test C rating (% disease control): 99%

## CCOC(=O)c1cncn(Cc2ccc(-c3noc(C(F)(F)F)n3)cc2)c1=O [compound 418]
Phakopsora pachyrhizi; Rate 10 ppm test suspension
  Test A rating (% disease control): 100%
[1]; Rate 10 ppm test suspension
  Test C rating (% disease control): 99%

## CC(C)CCOC(=O)c1cnn(Cc2ccc(-c3noc(C(F)(F)F)n3)cc2)c1 [compound 480]
Phakopsora pachyrhizi; Rate 10 ppm test suspension
  Test A rating (% disease control): 100%
[1]; Rate 10 ppm test suspension
  Test C rating (% disease control): 98%

## O=C(OCCN1CCOCC1)c1cnn(Cc2ccc(-c3noc(C(F)(F)F)n3)cc2)c1 [compound 475]
Phakopsora pachyrhizi; Rate 10 ppm test suspension
  Test A rating (% disease control): 100%
[1]; Rate 10 ppm test suspension
  Test C rating (% disease control): 91%

## CNC(=O)C1=NOC(Cc2ccc(-c3noc(C(F)(F)F)n3)s2)C1 (racemic) [compound 368]
Phakopsora pachyrhizi; 50 ppm test suspension
  Test A disease control rating: 100%
[1]; 50 ppm test suspension
  Test C disease control rating: 100%

## CC(=O)NN=Cc1cnn(Cc2ccc(-c3noc(C(F)(F)F)n3)cc2)c1 [compound 389]
Phakopsora pachyrhizi; Rate 10 ppm test suspension
  Test A rating (% disease control): 100%
[1]; Rate 10 ppm test suspension
  Test C rating (% disease control): 100%

## Nc1nn(Cc2ccc(-c3noc(C(F)(F)F)n3)cc2)c2ncccc12 [compound 446]
Phakopsora pachyrhizi; Rate 10 ppm test suspension
  Test A rating (% disease control): 99%
[1]; Rate 10 ppm test suspension
  Test C rating (% disease control): 86%

## CCOC(=O)C1=NOC(Cc2ccc(-c3noc(C(F)(F)F)n3)s2)C1 (racemic) [compound 366]
Phakopsora pachyrhizi; 50 ppm test suspension
  Test A disease control rating: 100%
[1]; 50 ppm test suspension
  Test C disease control rating: 100%

## COCCNC(=O)c1cc(C)n(Cc2ccc(-c3noc(C(F)(F)F)n3)cc2)n1 [compound 183]
Phakopsora pachyrhizi; 10 ppm test suspension
  Test A disease control rating: 100%
[1]; 10 ppm test suspension
  Test C disease control rating: 100%

## CCOC(=O)c1cn(Cc2ccc(-c3noc(C(F)(F)F)n3)cc2)c(=O)cn1 [compound 419]
Phakopsora pachyrhizi; Rate 10 ppm test suspension
  Test A rating (% disease control): 96%
[1]; Rate 10 ppm test suspension
  Test C rating (% disease control): 99%
